Source: ChEMBL document CHEMBL5303573, “Mapping human microbiome drug metabolism by gut bacteria and their genes” (Nature, 2019)

How the values were obtained:
[1] = The drug is tested on Bacteroides xylanisolvens strain: DSM18836 for biotransformation. The drug concentrations were measured before and after a 12-h incubation by liquid-chromatography-coupled mass spectrometry (LC–MS); settings: 2 µM
[2] = The drug is tested on Ruminococcus torques strain: ATCC27756 for biotransformation. The drug concentrations were measured before and after a 12-h incubation by liquid-chromatography-coupled mass spectrometry (LC–MS); assay type: ADME; set-up: dose 2 uM, timepoint 0 vs 12 hours; settings: 2 µM
[3] = The drug is tested on Bacteroides sp. WH2 strain: WH2 for biotransformation. The drug concentrations were measured before and after a 12-h incubation by liquid-chromatography-coupled mass spectrometry (LC–MS); settings: bacteroides sp. wh2, 12 h, 2 µM
[4] = roseburia intestinalis, 12 h, 2 µM
Description: The drug is tested on Roseburia intestinalis strain: L1-82 for biotransformation. The drug concentrations were measured before and after a 12-h incubation by liquid-chromatography-coupled mass spectrometry (LC–MS)

[5] = limosilactobacillus reuteri cf48-3a, 12 h, 2 µM
Description: The drug is tested on Lactobacillus reuteri CF48-3A strain: BEI HM-102 for biotransformation. The drug concentrations were measured before and after a 12-h incubation by liquid-chromatography-coupled mass spectrometry (LC–MS)

[6] = The drug is tested on Bifidobacterium breve strain: DSM20213 for biotransformation. The drug concentrations were measured before and after a 12-h incubation by liquid-chromatography-coupled mass spectrometry (LC–MS); settings: 2 µM
[7] = The drug is tested on Clostridium sporogenes strain: ATCC15579 for biotransformation. The drug concentrations were measured before and after a 12-h incubation by liquid-chromatography-coupled mass spectrometry (LC–MS); settings: 2 µM
[8] = The drug is tested on Ruminococcus gnavus strain: ATCC29149 for biotransformation. The drug concentrations were measured before and after a 12-h incubation by liquid-chromatography-coupled mass spectrometry (LC–MS); settings: mediterraneibacter gnavus, 2 µM
[9] = The drug is tested on Dorea formicigenerans strain: ATCC27755 for biotransformation. The drug concentrations were measured before and after a 12-h incubation by liquid-chromatography-coupled mass spectrometry (LC–MS); settings: 2 µM
[10] = The drug is tested on Clostridium ramosum strain: DSM1402 for biotransformation. The drug concentrations were measured before and after a 12-h incubation by liquid-chromatography-coupled mass spectrometry (LC–MS); settings: thomasclavelia ramosa, 2 µM
[11] = The drug is tested on Edwardsiella tarda strain: ATCC23685 for biotransformation. The drug concentrations were measured before and after a 12-h incubation by liquid-chromatography-coupled mass spectrometry (LC–MS); settings: 2 µM
[12] = The drug is tested on Bacteroides fragilis strain: HMW610 for biotransformation. The drug concentrations were measured before and after a 12-h incubation by liquid-chromatography-coupled mass spectrometry (LC–MS); settings: 2 µM
[13] = bacteroides thetaiotaomicron, 12 h, 2 µM
Description: The drug is tested on Bacteroides thetaiotaomicron strain: 3731 for biotransformation. The drug concentrations were measured before and after a 12-h incubation by liquid-chromatography-coupled mass spectrometry (LC–MS)

[14] = The drug is tested on Eubacterium ventriosum strain: ATCC27560 for biotransformation. The drug concentrations were measured before and after a 12-h incubation by liquid-chromatography-coupled mass spectrometry (LC–MS); assay type: ADME; set-up: dose 2 uM, timepoint 0 vs 12 hours; settings: 2 µM
[15] = The drug is tested on Anaerotruncus colihominis strain: DSM17241 for biotransformation. The drug concentrations were measured before and after a 12-h incubation by liquid-chromatography-coupled mass spectrometry (LC–MS); settings: 2 µM
[16] = The drug is tested on Ruminococcus lactaris strain: ATCC29176 for biotransformation. The drug concentrations were measured before and after a 12-h incubation by liquid-chromatography-coupled mass spectrometry (LC–MS); settings: 2 µM
[17] = bacteroides intestinalis, 12 h, 2 µM
Description: The drug is tested on Bacteroides intestinalis strain: DSM17393 for biotransformation. The drug concentrations were measured before and after a 12-h incubation by liquid-chromatography-coupled mass spectrometry (LC–MS)

[18] = The drug is tested on Blautia luti strain: DSM14534 for biotransformation. The drug concentrations were measured before and after a 12-h incubation by liquid-chromatography-coupled mass spectrometry (LC–MS); assay type: ADME; set-up: dose 2 uM, timepoint 0 vs 12 hours; settings: 2 µM
[19] = The drug is tested on Bacteroides fragilis strain: HMW615 for biotransformation. The drug concentrations were measured before and after a 12-h incubation by liquid-chromatography-coupled mass spectrometry (LC–MS); settings: 2 µM
[20] = The drug is tested on Enterobacter cancerogenus strain: ATCC35316 for biotransformation. The drug concentrations were measured before and after a 12-h incubation by liquid-chromatography-coupled mass spectrometry (LC–MS); settings: 2 µM

Measured: Bacterial Biotransformation

CCN(CC)CCNC(=O)c1cc(Cl)c(N)cc1OC [METOCLOPRAMIDE]
Compound NOT metabolized: all assays above

CCc1nn(CCCN2CCN(c3cccc(Cl)c3)CC2)c(=O)n1CCOc1ccccc1 [NEFAZODONE]
Compound NOT metabolized: all assays above
